Results published in PMC7377474, “Preclinical characterization of CPL302-253, a selective inhibitor of PI3Kδ, as the candidate for the inhalatory treatment and prevention of Asthma” (PLoS ONE, 2020).
Several values for one entry are separate records, joined by “and”; a condition that tells them apart may be missing. Equal entries are not always repeated.

Experiments:
[1] = Pharmacokinetics after intratracheal instillation; assay type: in vivo; conditions: mouse
Protocol: Female Balb/c mouse (20–25 g bodyweight) were purchased from Nofer Institute (Lodz, Poland). Animals were given 0.3 mg/kg or 1 mg/kg single dose of CPL302-253 by intratracheal instillation. The compound was suspended in 0.2% DMSO in saline. 5 animals per time-point were sacrificed 10 min, 30 min, 1 h, 2 h, 4 h, 7 h and 12 h after compound administration. The blood was collected by heart puncture to K2EDTA containing tubes and plasma samples were prepared by centrifugation. The Bronchoalveolar Lavage Fluid (BALF) was collected by flushing the lungs 2 times with 1 ml of saline. The lungs were homogenized in 10% DMSO solution in water. 3ml of the solution were used for 1 g of lung tissue. The samples were purified using acetonitrile and concentration of CPL302-253 was measured by LC-MS/MS with internal standard. The concentration of the compound is given per ml of plasma and BALF or g of lung tissue.
LC-MS analysis of PK samples was performed using 1290 Infinity II UPLC (Agilent) with 6460 Triple Quad MS (Agilent) in the positive mode and MRM mode. […] Samples were eluted using a timed, linear gradient from 10% B at 0.3 min to 95% B at 1.5 min, then back to 10% at 2.5 min. The column was equilibrated for up to 5 min. The flow rate was 0.4 mL/min. The injection volume was 5 μL. Calibration curve was prepared in the range from 1 ng/mL to 2000 ng/mL by spiking 45 μL of plasma with 5 μL of concentrated standard solution. All plasma based standard solutions and studied samples (50 μL) were subsequently extracted with 150 μL of acetonitrile containing donepezil as internal standard and centrifuged to provide supernatant ready for analysis.

PI3Kα = PI3Kα (Homo sapiens, UniProt P42336); experiment: ADP-Glo Kinase Assay; assay type: biochemical; design: purchased Merck Millipore
Protocol: (§1) The potency and selectivity of CPL302-253 against different isotypes of class I PI3K were assessed using ADP-Glo Kinase Assay (Promega) according to manufacturer’s protocol. PI3Kα, PI3Kβ, PI3Kδ, PI3Kγ were purchased from Merck Millipore. The inhibition of examined kinases activity was evaluated by measuring their ability to converse ATP to ADP in the presence of decreasing doses of tested compound (from 400 μM to 0,00004 μM). Kinases were mixed with 1 mM PIP2:PS substrate (Phosphoinositol-4,5-bisphosphate (PIP2) lipid vesicles with phosphoserine (PS), Thermofisher Scientific) and 30 μM ATP in an assay buffer (50 mM HEPES pH 7.5,50 mM NaCl, 3 mM MgCl2, 25 μg/ml BSA). The mixture was incubated in the dark for 1 h at 25°C (PI3Kα and PI3Kδ) or at 30°C (PI3Kβ, PI3Kγ). Next ADP-Glo reagent 1 was added to stop the reaction and remove any remaining ATP. The samples were incubated for 40 min at 25°C. Subsequently the ADP-Glo reagent 2 was added and reactions were incubated for 40 min at 25°C. Finally, luminescence was assessed and the IC50 was calculated.

PI3Kβ = PI3Kβ (Homo sapiens, UniProt P42338); experiment: ADP-Glo Kinase Assay; assay type: biochemical; design: purchased Merck Millipore
Protocol: as §1

PI3Kγ = PI3Kγ (Homo sapiens, UniProt P48736); experiment: ADP-Glo Kinase Assay; assay type: biochemical; design: purchased Merck Millipore
Protocol: as §1

neutrophils = experiment: Neutrophil ROS production; assay type: cell-based, human
Protocol: Neutrophils were isolated using EasySep Direct Human Neutrophil Isolation Kit (StemCell Technologies) from fresh whole blood of healthy donors according to manufacturer’s protocol. Cells were cultured in AIM V medium (Gibco). Cells were loaded for 30 min at 37°C in humidified incubator in the presence of 5% CO2 with DCFDA (2’,7’–dichlorofluorescein diacetate), a fluorescent ROS indicator. Subsequently neutrophils were treated for 15 min with CPL302-253 and dexamethasone. In the next step 20 ng/ml of human GM-CSF (StemCell Technologies) was added to prime cells. 15 min later 1 μg/ml LPS from E. coli O55:B5 (Sigma-Aldrich) was added to induce ROS generation. The ROS accumulation in the neutrophils was assessed on FACSCalibur 2 h after LPS stimulation.

PI3Kδ = molecular target: T1, PI3Kδ (Homo sapiens, UniProt O00329); experiment: ADP-Glo Kinase Assay; assay type: biochemical
T1 construct: purchased Merck Millipore
Protocol: as §1

Chain of PI3Kγ (P48736 whole entry): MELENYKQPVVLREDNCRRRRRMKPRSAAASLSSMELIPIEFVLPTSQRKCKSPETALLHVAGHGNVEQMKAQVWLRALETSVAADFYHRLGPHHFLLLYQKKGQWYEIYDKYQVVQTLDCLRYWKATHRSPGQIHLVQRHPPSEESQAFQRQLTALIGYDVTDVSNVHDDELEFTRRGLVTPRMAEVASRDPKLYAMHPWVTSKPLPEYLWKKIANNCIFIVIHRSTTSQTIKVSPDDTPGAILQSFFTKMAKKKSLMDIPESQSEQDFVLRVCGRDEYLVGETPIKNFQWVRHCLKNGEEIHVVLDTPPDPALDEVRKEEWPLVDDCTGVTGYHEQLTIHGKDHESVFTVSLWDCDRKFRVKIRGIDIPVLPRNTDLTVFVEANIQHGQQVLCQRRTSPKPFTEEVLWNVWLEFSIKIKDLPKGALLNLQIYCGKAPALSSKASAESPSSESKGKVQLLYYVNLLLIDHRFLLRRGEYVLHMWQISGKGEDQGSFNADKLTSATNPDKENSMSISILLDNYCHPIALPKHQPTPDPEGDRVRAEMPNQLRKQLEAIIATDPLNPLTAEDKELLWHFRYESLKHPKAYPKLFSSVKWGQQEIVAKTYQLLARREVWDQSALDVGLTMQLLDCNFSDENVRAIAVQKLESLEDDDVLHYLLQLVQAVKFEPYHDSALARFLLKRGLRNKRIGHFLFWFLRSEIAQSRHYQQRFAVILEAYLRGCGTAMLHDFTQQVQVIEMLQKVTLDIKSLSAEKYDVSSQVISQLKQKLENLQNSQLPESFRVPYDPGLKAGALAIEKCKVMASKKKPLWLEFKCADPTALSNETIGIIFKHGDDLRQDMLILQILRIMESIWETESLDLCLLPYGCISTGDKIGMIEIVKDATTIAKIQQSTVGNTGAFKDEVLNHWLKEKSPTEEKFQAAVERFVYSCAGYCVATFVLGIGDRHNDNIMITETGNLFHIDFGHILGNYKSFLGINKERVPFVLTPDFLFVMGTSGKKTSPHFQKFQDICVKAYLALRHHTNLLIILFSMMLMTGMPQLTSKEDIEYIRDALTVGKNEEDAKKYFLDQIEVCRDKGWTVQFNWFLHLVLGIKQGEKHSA
Chain of PI3Kα (P42336 whole entry): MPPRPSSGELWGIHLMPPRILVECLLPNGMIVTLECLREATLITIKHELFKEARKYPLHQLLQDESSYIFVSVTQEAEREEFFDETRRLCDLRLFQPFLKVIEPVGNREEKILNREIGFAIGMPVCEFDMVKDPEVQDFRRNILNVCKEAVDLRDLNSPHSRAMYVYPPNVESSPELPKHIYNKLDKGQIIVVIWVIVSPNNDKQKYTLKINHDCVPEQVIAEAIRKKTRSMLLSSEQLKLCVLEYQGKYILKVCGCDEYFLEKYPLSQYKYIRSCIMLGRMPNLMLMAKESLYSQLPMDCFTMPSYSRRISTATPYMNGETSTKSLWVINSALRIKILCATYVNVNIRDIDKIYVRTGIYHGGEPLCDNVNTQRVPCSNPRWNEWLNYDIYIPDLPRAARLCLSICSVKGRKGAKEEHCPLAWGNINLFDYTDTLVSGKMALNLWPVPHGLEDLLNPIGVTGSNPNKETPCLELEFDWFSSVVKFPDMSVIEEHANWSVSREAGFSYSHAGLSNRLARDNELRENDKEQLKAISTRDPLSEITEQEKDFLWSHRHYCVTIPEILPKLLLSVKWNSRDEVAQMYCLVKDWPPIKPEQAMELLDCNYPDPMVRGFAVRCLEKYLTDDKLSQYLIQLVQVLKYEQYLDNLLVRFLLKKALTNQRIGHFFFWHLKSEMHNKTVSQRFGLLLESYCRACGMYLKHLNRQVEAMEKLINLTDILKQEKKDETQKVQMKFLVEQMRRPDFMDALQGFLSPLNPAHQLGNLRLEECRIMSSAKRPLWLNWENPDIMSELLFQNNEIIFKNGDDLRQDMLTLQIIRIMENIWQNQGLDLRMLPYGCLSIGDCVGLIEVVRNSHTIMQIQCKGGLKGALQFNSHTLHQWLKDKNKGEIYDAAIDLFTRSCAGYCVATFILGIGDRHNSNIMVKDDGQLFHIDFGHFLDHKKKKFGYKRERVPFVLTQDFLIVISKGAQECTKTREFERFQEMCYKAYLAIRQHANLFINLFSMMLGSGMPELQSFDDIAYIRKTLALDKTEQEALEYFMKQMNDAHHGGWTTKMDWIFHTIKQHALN
Chain of PI3Kα (P27986 whole entry partner): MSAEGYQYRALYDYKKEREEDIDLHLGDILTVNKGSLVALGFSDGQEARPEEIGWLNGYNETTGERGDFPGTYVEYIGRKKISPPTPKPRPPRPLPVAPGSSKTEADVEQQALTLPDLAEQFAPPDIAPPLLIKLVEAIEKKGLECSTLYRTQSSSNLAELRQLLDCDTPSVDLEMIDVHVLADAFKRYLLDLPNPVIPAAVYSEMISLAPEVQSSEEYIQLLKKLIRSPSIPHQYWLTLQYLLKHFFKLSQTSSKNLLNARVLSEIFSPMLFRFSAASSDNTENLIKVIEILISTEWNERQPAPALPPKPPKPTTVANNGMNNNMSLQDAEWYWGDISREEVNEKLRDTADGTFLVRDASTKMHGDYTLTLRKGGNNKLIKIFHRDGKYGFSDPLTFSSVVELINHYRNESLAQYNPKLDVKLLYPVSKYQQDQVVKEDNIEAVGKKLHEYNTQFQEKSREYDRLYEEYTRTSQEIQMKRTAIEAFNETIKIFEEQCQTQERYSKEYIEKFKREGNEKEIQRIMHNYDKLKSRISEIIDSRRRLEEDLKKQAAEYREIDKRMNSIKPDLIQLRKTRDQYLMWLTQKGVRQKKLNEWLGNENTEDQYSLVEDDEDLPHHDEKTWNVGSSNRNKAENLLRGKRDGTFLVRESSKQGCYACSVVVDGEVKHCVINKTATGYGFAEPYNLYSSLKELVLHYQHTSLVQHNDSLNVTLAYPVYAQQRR
Chain of PI3Kβ (P42338 whole entry): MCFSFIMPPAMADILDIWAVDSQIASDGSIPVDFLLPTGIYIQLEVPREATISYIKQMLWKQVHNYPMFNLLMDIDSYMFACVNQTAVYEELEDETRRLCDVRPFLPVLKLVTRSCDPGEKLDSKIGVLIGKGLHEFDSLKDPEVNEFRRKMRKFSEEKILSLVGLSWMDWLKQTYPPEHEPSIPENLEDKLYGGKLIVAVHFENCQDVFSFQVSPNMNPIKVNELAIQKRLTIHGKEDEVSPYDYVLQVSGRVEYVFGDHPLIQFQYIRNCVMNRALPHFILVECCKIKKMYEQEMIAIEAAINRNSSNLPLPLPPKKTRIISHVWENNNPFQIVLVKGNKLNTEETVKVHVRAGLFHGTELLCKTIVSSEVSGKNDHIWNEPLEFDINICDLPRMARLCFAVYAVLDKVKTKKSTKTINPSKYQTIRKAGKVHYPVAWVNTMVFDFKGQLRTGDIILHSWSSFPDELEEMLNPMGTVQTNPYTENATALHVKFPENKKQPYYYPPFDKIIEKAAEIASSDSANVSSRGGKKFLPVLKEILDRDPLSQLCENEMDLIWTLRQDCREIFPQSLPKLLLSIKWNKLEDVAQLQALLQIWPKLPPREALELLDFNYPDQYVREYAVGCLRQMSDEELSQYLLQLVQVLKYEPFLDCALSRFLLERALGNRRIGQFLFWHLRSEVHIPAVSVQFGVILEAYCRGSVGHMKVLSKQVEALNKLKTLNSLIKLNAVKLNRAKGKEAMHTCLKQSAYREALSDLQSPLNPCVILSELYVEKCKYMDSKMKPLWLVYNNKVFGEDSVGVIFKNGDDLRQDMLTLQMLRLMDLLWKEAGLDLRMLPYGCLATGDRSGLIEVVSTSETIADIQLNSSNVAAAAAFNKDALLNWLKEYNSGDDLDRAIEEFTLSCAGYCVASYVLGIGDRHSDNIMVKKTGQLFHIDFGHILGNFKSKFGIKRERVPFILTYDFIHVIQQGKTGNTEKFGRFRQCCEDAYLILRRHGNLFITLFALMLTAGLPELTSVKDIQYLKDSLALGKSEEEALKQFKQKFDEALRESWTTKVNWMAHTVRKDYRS
Chain of PI3Kβ (P27986 whole entry partner): as the sequence (P27986 whole entry partner) above
T1 sequence (O00329 whole entry): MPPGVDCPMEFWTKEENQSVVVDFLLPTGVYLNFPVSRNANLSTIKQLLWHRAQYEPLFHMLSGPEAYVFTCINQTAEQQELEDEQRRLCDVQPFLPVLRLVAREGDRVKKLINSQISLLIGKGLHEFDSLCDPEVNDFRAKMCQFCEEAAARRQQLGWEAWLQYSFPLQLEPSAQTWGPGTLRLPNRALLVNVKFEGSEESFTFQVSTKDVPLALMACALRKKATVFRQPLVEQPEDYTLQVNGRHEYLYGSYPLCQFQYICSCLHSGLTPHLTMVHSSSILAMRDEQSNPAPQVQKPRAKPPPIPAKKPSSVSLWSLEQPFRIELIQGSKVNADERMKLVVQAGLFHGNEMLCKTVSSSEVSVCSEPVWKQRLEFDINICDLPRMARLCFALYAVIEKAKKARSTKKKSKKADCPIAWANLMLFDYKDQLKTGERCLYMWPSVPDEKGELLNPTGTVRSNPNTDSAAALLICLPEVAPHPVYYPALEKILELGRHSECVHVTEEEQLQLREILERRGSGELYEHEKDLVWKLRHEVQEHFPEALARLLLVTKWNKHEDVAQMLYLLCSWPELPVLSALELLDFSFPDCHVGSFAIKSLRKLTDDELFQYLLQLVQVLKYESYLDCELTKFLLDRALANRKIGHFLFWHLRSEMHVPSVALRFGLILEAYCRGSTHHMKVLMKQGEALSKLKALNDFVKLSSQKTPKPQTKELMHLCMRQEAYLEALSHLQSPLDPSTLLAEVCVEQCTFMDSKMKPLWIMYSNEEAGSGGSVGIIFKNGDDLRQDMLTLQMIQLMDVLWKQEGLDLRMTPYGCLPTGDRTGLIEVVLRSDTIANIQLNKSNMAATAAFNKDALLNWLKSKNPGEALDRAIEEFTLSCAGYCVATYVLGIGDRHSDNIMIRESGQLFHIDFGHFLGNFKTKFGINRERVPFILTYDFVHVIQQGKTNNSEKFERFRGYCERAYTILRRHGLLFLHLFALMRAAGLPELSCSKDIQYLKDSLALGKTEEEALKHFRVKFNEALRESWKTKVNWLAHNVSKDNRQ
T1 sequence (P27986 whole entry partner): as the sequence (P27986 whole entry partner) above

CC(C)(C)N1CCN(Cc2cc3nc(-c4cncc5[nH]ccc45)cc(N4CCOCC4)n3n2)CC1 [CPL302-253]
concentration in Plasma, single animals ([1]; 0.3 mg/kg intratracheal, time 2 h): 16.45
concentration in the blood compared with the lungs ([1]; in vivo): two orders of magnitude lower
distribution after intratracheal administration ([1]; in vivo): exclusively accumulated in the lung tissue and BAL with minor penetration to the circulation
IC50 (PI3Kα): 4.52 µM
Ratio to δ (PI3Kα; IC50 of isoform α to δ): 371
IC50 (PI3Kβ): 9.58 µM
Ratio to δ (PI3Kβ; IC50 of isoform β to δ): 785
IC50 (PI3Kγ): 45.4 µM
Ratio to δ (PI3Kγ; IC50 of isoform γ to δ): 3725
neutrophils stained positively by ROS fluorescent indicator (Fig 4C), single replicates (neutrophils; GM-CSF 20 ng/ml and LPS 1 μg/ml, 2 h): 52 and 10 and 17 and 22 and 2 and 9
ROS accumulation in neutrophils (neutrophils; GMCSF/LPS stimulation): reduced ROS accumulation
IC50 (PI3Kδ): 12.2 nM
